For series [1] the following is noted: human gut metagenome, 24 h, 2 µM.
For series [2] the following is noted: human gut metagenome, 24 h, 2 µM. This is another data set of the same source.
Series [3] can be described thus: The drug is tested on WLS-086 corresponding to human gut metagenome with ENA study accession number: PRJEB37062 and ENA sample accession number: ERS12561752 for biotransformation under anaerobic condition. The drug concentrations were measured over 9 timepoints collected between 0 and 24 hours of incubation by liquid-chromatography-coupled mass spectrometry (LC–MS). Conditions: 2 µM.

For series [4] the following is noted: human gut metagenome, 24 h, 2 µM. The source holds these as a separate data set.
A short description of series [5]: The drug is tested on WLS-090 corresponding to human gut metagenome with ENA study accession number: PRJEB37062 and ENA sample accession number: ERS12561753 for biotransformation under anaerobic condition. The drug concentrations were measured over 9 timepoints collected between 0 and 24 hours of incubation by liquid-chromatography-coupled mass spectrometry (LC–MS). Conditions: 2 µM.

The nature of series [6]: The drug is tested on Z-018 corresponding to pig gut metagenome with ENA study accession number: PRJEB37062 and ENA sample accession number: ERS12561817 for biotransformation under anaerobic condition. The drug concentrations were measured over 9 timepoints collected between 0 and 24 hours of incubation by liquid-chromatography-coupled mass spectrometry (LC–MS). Conditions: 2 µM.

Series [7] in a line: The drug is tested on WLS-310 corresponding to human gut metagenome with ENA study accession number: PRJEB37062 and ENA sample accession number: ERS12561785 for biotransformation under anaerobic condition. The drug concentrations were measured over 9 timepoints collected between 0 and 24 hours of incubation by liquid-chromatography-coupled mass spectrometry (LC–MS). The conditions noted are these: 2 µM.

The nature of series [8]: The drug is tested on WLS-038 corresponding to human gut metagenome with ENA study accession number: PRJEB37062 and ENA sample accession number: ERS12561745 for biotransformation under anaerobic condition. The drug concentrations were measured over 9 timepoints collected between 0 and 24 hours of incubation by liquid-chromatography-coupled mass spectrometry (LC–MS). The conditions noted are these: 2 µM.

The conditions of series [9]: human gut metagenome, 24 h, 2 µM. The source holds these as a separate data set.
Series [10] in a line: The drug is tested on WLS-220 corresponding to human gut metagenome with ENA study accession number: PRJEB37062 and ENA sample accession number: ERS12561769 for biotransformation under anaerobic condition. The drug concentrations were measured over 9 timepoints collected between 0 and 24 hours of incubation by liquid-chromatography-coupled mass spectrometry (LC–MS). The conditions noted are these: 2 µM.

The conditions of series [11]: human gut metagenome, 24 h, 2 µM. The source holds these as a separate data set.
The conditions of series [12]: human gut metagenome, 24 h, 2 µM. This is another data set of the same source.
Series [13] can be described thus: The drug is tested on Z-010 corresponding to metagenome with ENA study accession number: PRJEB37062 and ENA sample accession number: ERS12561810 for biotransformation under anaerobic condition. The drug concentrations were measured over 9 timepoints collected between 0 and 24 hours of incubation by liquid-chromatography-coupled mass spectrometry (LC–MS). The conditions noted are these: 2 µM.

For series [14] the following is noted: human gut metagenome, 24 h, 2 µM. This is another data set of the same source.
Series [15] is described as follows: The drug is tested on Z-026 corresponding to metagenome with ENA study accession number: PRJEB37062 and ENA sample accession number: ERS12561825 for biotransformation under anaerobic condition. The drug concentrations were measured over 9 timepoints collected between 0 and 24 hours of incubation by liquid-chromatography-coupled mass spectrometry (LC–MS). The conditions noted are these: 2 µM.

A short description of series [16]: The drug is tested on Z-028 corresponding to mouse gut metagenome with ENA study accession number: PRJEB37062 and ENA sample accession number: ERS12561827 for biotransformation under anaerobic condition. The drug concentrations were measured over 9 timepoints collected between 0 and 24 hours of incubation by liquid-chromatography-coupled mass spectrometry (LC–MS). Conditions: 2 µM.

Series [17] can be described thus: The drug is tested on Z-024 corresponding to pig gut metagenome with ENA study accession number: PRJEB37062 and ENA sample accession number: ERS12561823 for biotransformation under anaerobic condition. The drug concentrations were measured over 9 timepoints collected between 0 and 24 hours of incubation by liquid-chromatography-coupled mass spectrometry (LC–MS). Conditions: 2 µM.

Series [18] can be described thus: The drug is tested on Z-009 corresponding to pig gut metagenome with ENA study accession number: PRJEB37062 and ENA sample accession number: ERS12561809 for biotransformation under anaerobic condition. The drug concentrations were measured over 9 timepoints collected between 0 and 24 hours of incubation by liquid-chromatography-coupled mass spectrometry (LC–MS). The conditions noted are these: 2 µM.

Series [19] in a line: The drug is tested on Z-023 corresponding to metagenome with ENA study accession number: PRJEB37062 and ENA sample accession number: ERS12561822 for biotransformation under anaerobic condition. The drug concentrations were measured over 9 timepoints collected between 0 and 24 hours of incubation by liquid-chromatography-coupled mass spectrometry (LC–MS). Conditions: 2 µM.

Series [20] in a line: The drug is tested on Z-021 corresponding to metagenome with ENA study accession number: PRJEB37062 and ENA sample accession number: ERS12561820 for biotransformation under anaerobic condition. The drug concentrations were measured over 9 timepoints collected between 0 and 24 hours of incubation by liquid-chromatography-coupled mass spectrometry (LC–MS). The conditions noted are these: 2 µM.
Further: call rule not given here.

Turning to `Clc1cccc(Cl)c1N=C1NCCN1` [CLONIDINE], the “Bacterial Biotransformation” value is on record as “Compound NOT metabolized” in series [1]; “Compound NOT metabolized” in series [2]; “Compound metabolized” in series [3]; “Compound metabolized” in [4]; “Compound metabolized” in series [5]; “Compound metabolized” in series [6]. The “Bacterial Biotransformation” value in series [7] is given as “Compound metabolized”; in [8], “Compound NOT metabolized”; in series [9], “Compound metabolized”; in [10], “Compound metabolized”; in [11], “Compound metabolized”; in series [12], “Compound NOT metabolized”. For the same compound, the “Bacterial Biotransformation” value in series [13] is “Compound metabolized”; in [14] it was “Compound NOT metabolized”; in series [15], “Compound NOT metabolized”; in series [16], “Compound NOT metabolized”; in series [17] it was “Compound NOT metabolized”; in [18], “Compound metabolized”. The “Bacterial Biotransformation” value in series [19] and in series [20] was “Compound NOT metabolized” in each case.

With `CCOc1ccccc1OCCN[C@H](C)Cc1ccc(OC)c(S(N)(=O)=O)c1.Cl` [TAMSULOSIN HYDROCHLORIDE], the “Bacterial Biotransformation” value in series [1] was “Compound NOT metabolized”; in [2] it was “Compound NOT metabolized”; in [3], “Compound metabolized”; in [4] it was “Compound metabolized”; in series [5], “Compound metabolized”; in series [6], “Compound NOT metabolized”. The “Bacterial Biotransformation” value in series [7], in series [8], in series [9], in [10], in [11] and in series [12] was “Compound NOT metabolized” each time. Moreover, the “Bacterial Biotransformation” value in series [13], in series [14], in series [15], in [16], in series [17] and in series [18] was “Compound NOT metabolized” in each case. The “Bacterial Biotransformation” value in series [19] and in series [20] was “Compound metabolized” in each case.

For the compound `O=C(NC(Cc1cc(=O)[nH]c2ccccc12)C(=O)O)c1ccc(Cl)cc1` (stereo not given) [REBAMIPIDE], the “Bacterial Biotransformation” value is given as “Compound NOT metabolized” in series [1]; “Compound NOT metabolized” in series [2]; “Compound metabolized” in series [3]; “Compound NOT metabolized” in series [4]; “Compound NOT metabolized” in series [5]; “Compound NOT metabolized” in [6]. Also, the “Bacterial Biotransformation” value in [7] is on record as “Compound NOT metabolized”; in [8] it was “Compound NOT metabolized”; in series [9] it was “Compound NOT metabolized”; in [10] it was “Compound NOT metabolized”; in [11] it was “Compound metabolized”; in series [12] it was “Compound NOT metabolized”. Besides, the “Bacterial Biotransformation” value in [13] is “Compound NOT metabolized”; in series [14], “Compound metabolized”; in series [15], “Compound NOT metabolized”; in [16], “Compound NOT metabolized”; in series [17], “Compound metabolized”; in series [18], “Compound NOT metabolized”. For the same compound, the “Bacterial Biotransformation” value in series [19] and in [20] was “Compound metabolized” in each case.

As for `COc1ccccc1OCCNCC(O)COc1cccc2[nH]c3ccccc3c12` (stereo not given) [CARVEDILOL], the “Bacterial Biotransformation” value in series [1] is reported as “Compound metabolized”; in series [2], “Compound NOT metabolized”; in [3], “Compound metabolized”; in series [4], “Compound metabolized”; in series [5] it was “Compound metabolized”; in series [6], “Compound NOT metabolized”. Besides, the “Bacterial Biotransformation” value is “Compound metabolized” in series [7]; “Compound metabolized” in series [8]; “Compound metabolized” in series [9]; “Compound metabolized” in [10]; “Compound metabolized” in series [11]; “Compound NOT metabolized” in [12]. Further, the “Bacterial Biotransformation” value in series [13] is “Compound metabolized”; in series [14] it was “Compound metabolized”; in series [15] it was “Compound NOT metabolized”; in [16] it was “Compound NOT metabolized”; in series [17], “Compound metabolized”; in series [18], “Compound NOT metabolized”. Further, the “Bacterial Biotransformation” value is given as “Compound metabolized” in series [19] and “Compound NOT metabolized” in series [20].

Regarding `Nc1nc(NC2CC2)c2ncn([C@H]3C=C[C@@H](CO)C3)c2n1.Nc1nc(NC2CC2)c2ncn([C@H]3C=C[C@@H](CO)C3)c2n1.O=S(=O)(O)O` [ABACAVIR SULFATE], the “Bacterial Biotransformation” value in series [1] is “Compound metabolized”; in series [2] it was “Compound metabolized”; in [3] it was “Compound metabolized”; in series [4], “Compound metabolized”; in [5], “Compound metabolized”; in [6], “Compound NOT metabolized”. The “Bacterial Biotransformation” value in series [7] is recorded as “Compound NOT metabolized”; in [8], “Compound NOT metabolized”; in series [9], “Compound metabolized”; in series [10] it was “Compound metabolized”; in series [11], “Compound metabolized”; in [12], “Compound NOT metabolized”. In addition, the “Bacterial Biotransformation” value in [13] was “Compound metabolized”; in series [14], “Compound NOT metabolized”; in series [15], “Compound NOT metabolized”; in series [16], “Compound NOT metabolized”; in [17] it was “Compound NOT metabolized”; in [18], “Compound NOT metabolized”. Moreover, the “Bacterial Biotransformation” value in [19] and in series [20] was “Compound NOT metabolized” each time.

The record behind these values is ChEMBL document CHEMBL5724914, “Linking interpersonal differences in gut microbiota composition and drug biotransformation activity” (2024).
